Assay: recombinant UMI read abundance after kanamycin selection (control-corrected) (log10(CPM+1)); higher = more efficient recombination; extreme values may be limits of the assay; sequences stand for … in AGTGCAGAGAAAATCGGCCAGTTTTCTCTGCCTGCAGTCCGCATGCCGTGGGACCCCTTGGGTTCTAACCTGTTGCCTAGATTTATGCAGCGGACTGCCTTTCTCCCAAAGTGATAAACCGG…AGGTTGGTTTCACT; site = the 11-nt donor
Procedure, shortened: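 Values, expressed as log10(CPM+1), derive from recombinant UMI counts converted to CPM, averaged across replicates and scaled by control-derived factors. Plating was with IPTG (0.07 mM) plus kanamycin or unselected, two replicates each. The screen pooled donor and donor-binding-loop pairs for the IS621 bridge recombinase in Escherichia coli.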
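Also: IS621 bridge recombinase in Escherichia coli cells against a fixed T5 target plasmid.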

Row | Sequence | recombinant UMI read abundance (log10)
1 | TCCCACACATGGACCGGTTTTCCCGGTAATCCGTATTTGTA (site GCCCACACTTA) | 0.0195
2 | TCCCACACATGGACCGGTTTTCCCGGTAATCCGTATTTGTA (site TCCCACACTTA) | 0.42
3 | TCCCACTCATGGACCGGTTTTCCCGGTAATCCGTATTTGGG (site TCCCACTCTCC) | 0.0433
4 | TCCCCAACATGGACCGGTTTTCCCGGTAATCCGTATTTGCT (site TCCCCAACTAG) | 0.417
5 | TCCCCTTCATGGACCGGTTTTCCCGGTAATCCGTATTTGAG (site TCCCCTTCTCT) | 0
6 | TCCCGCCCATGGACCGGTTTTCCCGGTAATCCGTATTTGGC (site TCCCGCCCTGC) | 0
7 | TCCGAGACATGGACCGGTTTTCCCGGTAATCCGTATTTGCG (site TCAGAGACTCG) | 0.0174
8 | TCCGAGACATGGACCGGTTTTCCCGGTAATCCGTATTTGCG (site TCCGAGACTCG) | 0.0319
9 | TCCGAGACATGGACCGGTTTTCCCGGTAATCCGTATTTGCG (site TCGGAGACTCG) | 0.0214
10 | TCCGAGACATGGACCGGTTTTCCCGGTAATCCGTATTTGCG (site TCTGAGACTCG) | 0.0115
11 | TCCGCCGCATGGACCGGTTTTCCCGGTAATCCGTATTTGCG (site TCCACCGCTCG) | 0
12 | TCCGCCGCATGGACCGGTTTTCCCGGTAATCCGTATTTGCG (site TCCCCCGCTCG) | 0.00514
13 | TCCGCCGCATGGACCGGTTTTCCCGGTAATCCGTATTTGCG (site TCCGCCGCTCG) | 0.0179
14 | TCCGCCGCATGGACCGGTTTTCCCGGTAATCCGTATTTGCG (site TCCTCCGCTCG) | 0.00863
15 | TCCGCTACATGGACCGGTTTTCCCGGTAATCCGTATTTGAT (site TCCGCTACTAT) | 0.00615
16 | TCCGGGTCATGGACCGGTTTTCCCGGTAATCCGTATTTGTA (site TCCGGGTCTTA) | 0.413
17 | TCCTAATCATGGACCGGTTTTCCCGGTAATCCGTATTTGTC (site TCCTAATCTGA) | 0
18 | TCCTACCCATGGACCGGTTTTCCCGGTAATCCGTATTTGAG (site TCCTACCCTCT) | 0.0177
19 | TCCTAGCCATGGACCGGTTTTCCCGGTAATCCGTATTTGCC (site ACCTAGCCTGG) | 0
20 | TCCTAGCCATGGACCGGTTTTCCCGGTAATCCGTATTTGCC (site CCCTAGCCTGG) | 0
21 | TCCTAGCCATGGACCGGTTTTCCCGGTAATCCGTATTTGCC (site GCCTAGCCTGG) | 0.221
22 | TCCTAGCCATGGACCGGTTTTCCCGGTAATCCGTATTTGCC (site TCCTAGCCTGG) | 0
23 | TCGACTCCATGGACCGGTTTTCCCGGTAATCCGTATTTGCC (site TCGACTCCTGG) | 0
24 | TCGAGCGCATGGACCGGTTTTCCCGGTAATCCGTATTTGCT (site TCGAGCGCTAG) | 1.5
25 | TCGAGGACATGGACCGGTTTTCCCGGTAATCCGTATTTGGC (site TCGAGGACTGC) | 0

Row | Sequence | recombinant UMI read abundance (log10)
26 | TCGAGTCCATGGACCGGTTTTCCCGGTAATCCGTATTTGGC (site TCGAGTCCTGC) | 0
27 | TCGCAGCCATGGACCGGTTTTCCCGGTAATCCGTATTTGGA (site AAAGTCTCTCG) | 0
28 | TCGCATTCATGGACCGGTTTTCCCGGTAATCCGTATTTGTC (site TCGCATTCTGA) | 0
29 | TCGCCGCCATGGACCGGTTTTCCCGGTAATCCGTATTTGGG (site TCGCCGCCTCC) | 0.00807
30 | TCGCCGGCATGGACCGGTTTTCCCGGTAATCCGTATTTGGC (site TAGCCGGCTGC) | 0
31 | TCGCCGGCATGGACCGGTTTTCCCGGTAATCCGTATTTGGC (site TCGCCGGCTGC) | 0
32 | TCGCCGGCATGGACCGGTTTTCCCGGTAATCCGTATTTGGC (site TGGCCGGCTGC) | 0
33 | TCGCCGGCATGGACCGGTTTTCCCGGTAATCCGTATTTGGC (site TTGCCGGCTGC) | 0
34 | TCGCTAGCATGGACCGGTTTTCCCGGTAATCCGTATTTGCC (site TCGCTAGCTGG) | 0
35 | TCGCTGTCATGGACCGGTTTTCCCGGTAATCCGTATTTGTG (site TCGCTGTCTCA) | 0.936
36 | TCGGAGACATGGACCGGTTTTCCCGGTAATCCGTATTTGCG (site TCAGAGACTCG) | 1.72
37 | TCGGAGACATGGACCGGTTTTCCCGGTAATCCGTATTTGCG (site TCCGAGACTCG) | 0.44
38 | TCGGAGACATGGACCGGTTTTCCCGGTAATCCGTATTTGCG (site TCGGAGACTCG) | 2.41
39 | TCGGAGACATGGACCGGTTTTCCCGGTAATCCGTATTTGCG (site TCTGAGACTCG) | 0.976
40 | TCGGCGGCATGGACCGGTTTTCCCGGTAATCCGTATTTGAG (site TCGGCGGCTCT) | 0.464
41 | TCGGGTACATGGACCGGTTTTCCCGGTAATCCGTATTTGAC (site TCGGGTACTGT) | 0
42 | TCGTATTCATGGACCGGTTTTCCCGGTAATCCGTATTTGTT (site TCGTATTCTAA) | 1.24
43 | TCGTCTACATGGACCGGTTTTCCCGGTAATCCGTATTTGAT (site TCGTCTACTAT) | 0.00771
44 | TCGTGATCATGGACCGGTTTTCCCGGTAATCCGTATTTGGC (site TCGTGATCTGC) | 0
45 | TCGTTAACATGGACCGGTTTTCCCGGTAATCCGTATTTGTT (site TCGTTAACTAA) | 0.00894
46 | TCGTTCACATGGACCGGTTTTCCCGGTAATCCGTATTTGGA (site TCGTTCACTTC) | 0.0102
47 | TCGTTCTCATGGACCGGTTTTCCCGGTAATCCGTATTTGGG (site TCGTTCTCTCC) | 0.00264
48 | TCTAAATCATGGACCGGTTTTCCCGGTAATCCGTATTTGTT (site TCTAAATCTAA) | 0
49 | TCTAAGACATGGACCGGTTTTCCCGGTAATCCGTATTTGTG (site TCTAAGACTCA) | 0.00606
50 | TCTAAGGCATGGACCGGTTTTCCCGGTAATCCGTATTTGGT (site TCTAAGGCTAC) | 0.43

Row | Sequence | recombinant UMI read abundance (log10)
51 | TCTACACCATGGACCGGTTTTCCCGGTAATCCGTATTTGGT (site TCTACACCTAC) | 0.00817
52 | TCTGAAACATGGACCGGTTTTCCCGGTAATCCGTATTTGTG (site TCTGAAACTCA) | 0.00806
53 | TCTGAGACATGGACCGGTTTTCCCGGTAATCCGTATTTGCC (site TCTGAGACTGG) | 0.0914
54 | TCTGAGACATGGACCGGTTTTCCCGGTAATCCGTATTTGCG (site TCAGAGACTCG) | 0
55 | TCTGAGACATGGACCGGTTTTCCCGGTAATCCGTATTTGCG (site TCCGAGACTCG) | 0.022
56 | TCTGAGACATGGACCGGTTTTCCCGGTAATCCGTATTTGCG (site TCGGAGACTCG) | 0.285
57 | TCTGAGACATGGACCGGTTTTCCCGGTAATCCGTATTTGCG (site TCTGAGACTCG) | 0.476
58 | TCTGCAGCATGGACCGGTTTTCCCGGTAATCCGTATTTGTA (site TCTGCAGCTTA) | 0
59 | TCTGCCCCATGGACCGGTTTTCCCGGTAATCCGTATTTGGG (site TCTGCCCCTCC) | 0.00716
60 | TCTGCCGCATGGACCGGTTTTCCCGGTAATCCGTATTTGAG (site TCTGCCGCTCT) | 0.0275
61 | TCTGGATCATGGACCGGTTTTCCCGGTAATCCGTATTTGCT (site TCTGGATCTAG) | 0
62 | TCTGGGTCATGGACCGGTTTTCCCGGTAATCCGTATTTGTT (site TCTGGGTCTAA) | 0.167
63 | TCTGGTCCATGGACCGGTTTTCCCGGTAATCCGTATTTGAG (site TCTGGTCCTCT) | 0.00736
64 | TCTGTCGCATGGACCGGTTTTCCCGGTAATCCGTATTTGGC (site TCTGTCGCTGC) | 0.00952
65 | TCTGTGGCATGGACCGGTTTTCCCGGTAATCCGTATTTGAC (site TCTGTGGCTGT) | 0
66 | TCTTCGACATGGACCGGTTTTCCCGGTAATCCGTATTTGAG (site TCTTCGACTCT) | 0.0148
67 | TCTTCTTCATGGACCGGTTTTCCCGGTAATCCGTATTTGAA (site TCTTCTTCTTT) | 0.00225
68 | TGAAAGGCATGGACCGGTTTTCCCGGTAATCCGTATTTGCT (site AGAAAGGCTAG) | 0.855
69 | TGAAAGGCATGGACCGGTTTTCCCGGTAATCCGTATTTGCT (site CGAAAGGCTAG) | 0.708
70 | TGAAAGGCATGGACCGGTTTTCCCGGTAATCCGTATTTGCT (site GGAAAGGCTAG) | 0
71 | TGAAAGGCATGGACCGGTTTTCCCGGTAATCCGTATTTGCT (site TGAAAGGCTAG) | 2.34
72 | TGAAGAACATGGACCGGTTTTCCCGGTAATCCGTATTTGGC (site TGAAGAACTGC) | 2.29
73 | TGAAGTCCATGGACCGGTTTTCCCGGTAATCCGTATTTGTA (site TAAAGTCCTTA) | 0.00928
74 | TGAAGTCCATGGACCGGTTTTCCCGGTAATCCGTATTTGTA (site TCAAGTCCTTA) | 1.44
75 | TGAAGTCCATGGACCGGTTTTCCCGGTAATCCGTATTTGTA (site TGAAGTCCTTA) | 0.591
